The text below walks through data of patent publication US5659048A, “Chiral [[(2-bromoethyl)-amino]methyl]-2-nitro-1H-imidazol-1-ethanol and related compounds” (priority 1995, dated 1997).

One data set deals with B6 C3 F1 mice. As to the kind of experiment: Mouse Toxicity Studies (14-day lethality, LD10 by probit analysis). In kind it is in vivo. The protocol: B6 C3 F1 mice were treated with varying doses of test agent by either intraperitoneal, intravenous, or oral administration. […] The maximum tolerated dose was established as the dose equal to or less than the LD10 as determined from a probit analysis.

Data set [1] is described as follows: Emesis Studies in beagle dogs. In kind it is in vivo. The settings on record: dog, in vivo; IV, 10-minute infusion, 6-hour postdosing scoring; threshold dose at which 50% of animals exhibited emetic response; read-out: Emesis (Dogs) ED50. The protocol: (§1) Beagle dogs (approximately 10 kg body weight) were treated intravenously with a 10-minute infusion of 20 mL of the test compound prepared in sodium lactate buffer, pH 4.0. Dogs were scored over a 6-hour postdosing period for both the number of emetic episodes and the relative volume. Antiemetic therapy consisted of a 5-minute infusion of ondansetron, administered at a dose of 0.3 mg/kg 30 minutes prior to treatment with the nitroimidazole.

For the next data set, the system named is KHT fibrosarcoma. Put plainly: Radiosensitizing efficacy in mice: excision assay, clonogenic survival of KHT fibrosarcomas. The data set is classed as in vivo, B6 C3 F1 mice. The following applies: 250 mg/kg IP, 30 min before 10 Gray whole body irradiation. Here is the method:
Clonogenic survival of KHT fibrosarcomas was determined in assays employing B6 C3 F1 mice. Tumors were implanted subcutaneously by trocar. Nine days postimplantation, when tumors ranged from 200 to 400 mg in size, mice were treated IP with a range of drug doses including the maximum tolerated dose of the test agent. Thirty minutes later mice received whole body irradiation at a dose of 10 Gray, delivered at a rate of 2 Gray/minute with a 320 kV x-ray machine. Twenty-four hours after treatment, animals were sacrificed, and tumors were excised. Tumors were enzymatically digested to give single cell suspensions prior to plating for cell survival by clonogenic assay.

The next data set relates to SCC7 carcinoma. Put plainly: Radiosensitizing efficacy in mice: tumor growth delay, SCC7 carcinoma. The data set is classed as in vivo, B6 C3 F1 mice. The following applies: IP at maximum tolerated dose every 12 hours, 30 min before 2.5 Gray, 8 fractions. The protocol:
Tumor growth delay was assessed in B6 C3 F1 mice implanted IM with 5×10^5 SCC7 carcinoma tumor cells. On Days 10 through 13 post tumor implantation, mice were treated every 12 hours with the maximum tolerated dose of test agent (determined from a 10-day multiple treatment schedule). Thirty minutes later, mice were irradiated at the tumor site with a 2.5 Gray dose of x-rays. Upon completion of this 8 fraction protocol, tumor growth was monitored daily.

The test system of another data set is beagle dogs. Put plainly: Emesis Studies in beagle dogs. In kind it is in vivo. The following applies: dogs, IV; result in words. Here is the method: as §1

`Br.O=[N+]([O-])c1nccn1C[C@@H](O)CNCCBr` [(S), (S)-(-)-α-[[(2-Bromoethyl)amino]methyl]-2-nitro-1H-imidazole-1-ethanol, monohydrobromide]: the results for the LD10 in the data set with B6 C3 F1 mice (IP), with B6 C3 F1 mice (IV) and with B6 C3 F1 mice (PO) were 850 mg/kg, 900 mg/kg and 1100 mg/kg, respectively. In addition, in data set [1], the TD50 at 6 h was found to be 4 mg/kg. In addition, in the data set with KHT fibrosarcoma, the “Excision (250 mg/kg), % control” value was determined as 11 % control. In the data set on SCC7 carcinoma, the “Growth Delay Fold Enhancement” value came out at 1.8 Fold.
Regarding `Br.O=[N+]([O-])c1nccn1C[C@H](O)CNCCBr` [(R), (R)-(+)-α-[[(2-Bromoethyl)amino]methyl]-2-nitro-1H-imidazole-1-ethanol, monohydrobromide], the LD10 with B6 C3 F1 mice (IP) is on record as 850 mg/kg; in the data set with B6 C3 F1 mice (IV) it was 900 mg/kg; in the data set on B6 C3 F1 mice (PO), 1100 mg/kg. In data set [1], the TD50 at 6 h turned out to be 12 mg/kg. In addition, the “Emesis relative to (S) isomer or racemic mixture” value in the data set with beagle dogs is “significantly less emesis than the (S) isomer or the mixture”. In the data set with KHT fibrosarcoma, the “Excision (250 mg/kg), % control” value was 11 % control. For the same compound, the “Growth Delay Fold Enhancement” value in the data set on SCC7 carcinoma is recorded as 2.1 Fold.
